Reference: PMC12079444, “Antagonist Targeting the Species‐Specific Fatty Acid Dehydrogenase/Isomerase FabX for Anti‐H. pylori Infection” (Advanced Science, 2025)
In brackets after ≈: the same amount, converted by molar mass.

Tests used:
[1] = tested on: T1, Helicobacter pylori BHKS 568; assay: microbe, parasite or virus in culture; settings: BHKS568, read-out: MIC
T1 construct: BHKS568 (NSH57 IR0203::fabX ΔfabX) native fabX relocated to IR0203
Protocol: (§1) The sensitivity of H. pylori strains to various compounds was assessed by determining the MIC and evaluating the growth of the strains on the drug‐containing agar media. The MIC was measured using the broth microdilution assay as described previously.^[ [27] ^] Twofold serial dilutions of the test compounds were prepared using BHI broth supplemented with 10% FCS in 96‐well microtiter plates. Diluted H. pylori cultures, adjusted to a final concentration of 5 × 10^5 CFU mL^−1, were then added to each well. The cultures were incubated for 48–72 h in a microaerobic environment at 37 °C. The MIC was determined by visual inspection. H. pylori strains used in this study were cultured on brain heart infusion (BHI) broth (Oxoid, UK) or Columbia blood agar medium (Oxoid, UK) supplemented with 10% fetal calf serum (FCS). The cultures were incubated at 37 °C for 48–72 h under microaerobic environments in a double‐gas CO2 incubator (Binder, Germany). The wild‐type strains G27 and NSH57 used in this study were kindly provided by Prof. Nina R. Salama from the Fred Hutchinson Cancer Research Center (USA). Three clinical H. pylori strains (BYES129, BY924, and JIGC0009) were isolated from biopsy samples from three patients with gastritis or gastric cancer using standard protocols. Strains BHKS551 (NSH57 IR0203::fabA ΔfabX) and BHKS568 (NSH57 IR0203::fabX ΔfabX) were described previously.^[ [19] ^] The following 15 reference strains of different species were also used: Escherichia coli ATCC 25922, Klebsiella pneumoniae ATCC 35657, Pseudomonas aeruginosa PAO1, Salmonella enterica serovar Typhimurium ATCC 14028, Shigella dysenteriae Sd197, Acinetobacter baumannii ATCC 19606, Proteus mirabilis ATCC 29906, Enterobacter cloacae ATCC 13047, Stenotrophomonas maltophilia ATCC 51331, Bacillus subtilis 168, Enterococcus faecium ATCC 19434, Staphylococcus aureus ATCC 25923, Staphylococcus haemolyticus ATCC 29970, Listeria monocytogenes EGDe, and Morganella morganii ATCC 25830. These non‐Helicobacter bacterial strains were cultured as described previously.^[ [25] ^] We evaluated the antibacterial activities of selected compounds (IC 50 < 1 × 10^−6 M) against several H. pylori strains (Table S3∖, Supporting Information), particularly against strains BHKS551 and BHKS211 (the FabX overexpressed strain, hereinafter referred to as FabX^OE) to validate the on‐target effect in vivo. Note that FabX is overproduced 3.32‐fold in strain BHKS211 compared to the control strain BHKS210 carrying the empty vector (Figure S3, Supporting Information). […] This could be due to the fact that the carboxyl group of 8j readily deprotonates and acquires negative charge at physiological pH, which reduces its lipophilicity and prevents it from permeating the bacterial cell membrane. To address this issue, we employed a prodrug strategy and synthesized esters from 8j by attaching it to lipophilic alcohols (8p‐8u) or a lipophilic cation 6‐hydroxyhexyltriphenylphosphonium bromide (8v) (Figure 3). […] Compounds 8p‐8s were synthesized as shown in Scheme 1, while compounds 8t‐8v were synthesized as described in Scheme 3 . 8q was hydrolyzed with NaOH to yield 8j, which was subsequently reacted with various alcohols by Steglich esterification to produce compounds 8t‐8v.

Helicobacter pylori G27 = tested on: T2, Helicobacter pylori G27; assay: microbe, parasite or virus in culture; settings: G27, read-out: MIC
T2 construct: G27
Protocol: as §1

[2] = tested on: T3, Helicobacter pylori Hp129; assay: microbe, parasite or virus in culture; settings: HP129, read-out: MIC
T3 construct: Hp129
Protocol: as §1

[3] = tested on: T4, Helicobacter pylori BHKS 210; assay: microbe, parasite or virus in culture; settings: BHKS210, read-out: MIC
T4 construct: BHKS210 (NSH57/empty vector pTM117) wild-type NSH57 with empty vector
Protocol: as §1

FabX [4] = target: T5, FabX (Helicobacter pylori, UniProt O25465); assay: FabX-FabI coupled assay, NADH absorbance […] nm; assay type: biochemical
T5 construct: gene HP_0773; recombinant from pQE2 vector in E. coli BL21(DE3) Rosetta, Ni-NTA, HiTrap-SP, Superdex75; FMN and [4Fe-4S] cofactors
T5 sequence (O25465 1-363): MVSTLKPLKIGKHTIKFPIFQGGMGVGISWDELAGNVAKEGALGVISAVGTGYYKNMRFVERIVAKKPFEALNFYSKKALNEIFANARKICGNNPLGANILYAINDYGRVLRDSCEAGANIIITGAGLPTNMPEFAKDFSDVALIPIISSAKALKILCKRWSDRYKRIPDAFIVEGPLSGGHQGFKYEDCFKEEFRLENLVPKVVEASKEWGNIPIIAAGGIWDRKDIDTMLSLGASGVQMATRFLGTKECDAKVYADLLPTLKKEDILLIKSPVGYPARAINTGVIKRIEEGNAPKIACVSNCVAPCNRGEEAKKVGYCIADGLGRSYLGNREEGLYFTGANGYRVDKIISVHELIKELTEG

FabX [5] = target: T5, FabX; assay: isothermal titration calorimetry; assay type: binding
FabX [6] = target: T5, FabX; assay: biochemical; design: FabX inhibition in multienzymatic cascade coupled to FabI, NADH consumption read-out; settings: read-out: % inhibition
Source text: To discover small molecule inhibitors targeting FabX, we performed protein thermal shift assay (PTSA) based high‐throughput screening against an in‐house chemical library of 11000 small molecule compounds, and established a multienzymatic cascade reaction system by incorporating the enoyl acyl carrier protein reductase FabI from H. pylori into the hit validation system, where FabI catalyzes the reduction of FabX catalytic product enoyl‐ACP in the fourth step of the elongation cycle, accompanying the elimination of NADH (Figure 2A,B). […] The subcloning, expression, and purification of FabX, FabI, and ACP from H. pylori, FabK from S. pneumoniae, and FabA from E. coli were described previously.^[ [19] ^] Briefly, fabX, fabI, fabK, and fabA genes were subcloned to pQE2 vector, while the Acp gene was subcloned to pET32a vector, respectively. The proteins were expressed in BL21(DE3) Rosetta cells, purified by using Ni‐NTA affinity column, HiTrap‐SP column, GE HiLoad 16/600 Superdex75 prep grade gel‐filtration column. The peaks from the gel‐filtration column were further pooled, concentrated, and the final concentration of the proteins was quantified by the Bradford reagent purchased from Bio‐Rad.

FabX [7] = target: T5, FabX; assay: FabX-FabI coupled assay, NADH absorbance […] nm; assay type: biochemical; settings: read-out: FabX enzymatic activity / 10 × 10^-6 M [%]
FabX [8] = target: T5, FabX; assay: X-ray crystal structure, […] Å; assay type: binding; settings: bound cofactor in the complex with FBX-1991

Row | Structure (SMILES) | MIC [1] [µg/mL] | MIC (Helicobacter pylori G27) [µg/mL] | MIC [2] [µg/mL] | MIC [3] [µg/mL] | IC50 (FabX [4]) [nM] | Kd (FabX [5]) [nM] | inhibition at 1 µM (FabX [6]) [%] | inhibition at 10 µM (FabX [6]) [%] | inhibition at 10 µM (FabX [7]) [%] | X-ray crystal structure, 2.00 Å (FabX [8])
1 | O=C(O)c1cccc(NS(=O)(=O)c2cccnc2Nc2ccc(Cl)cc2Cl)c1 [8j, FBX-1872] | > 64 | > 64 | > 64 | > 128 | 437 ± 42 | 435 ± 46 | 65 | 100 | – | –
2 | CC(C)(C)OC(=O)c1cccc(NS(=O)(=O)c2cccnc2Nc2ccc(Cl)cc2Cl)c1 [8s] | 32 (≈ 64.7 µM) | 64 (≈ 129 µM) | 32 (≈ 64.7 µM) | 32 (≈ 64.7 µM) | – | – | – | – | 10 | –
3 | Cc1cc2nc3c(=O)[nH]c(=O)nc-3n(C[C@H](O)[C@H](O)[C@H](O)COP(=O)(O)O)c2cc1C [FMN] | – | – | – | – | – | – | – | – | – | binds in the region between the FMN cofactor and the catalytic tunnel of FabX
